Here are results for 27 molecules from PubChem BioAssay AID256 (DTP/NCI, 2004).

The test system of this assay is CD2F1 mice, L1210 leukemia ip, survival T/C. Description: NCI In Vivo Anticancer Drug Screen. Data for tumor model L1210 Leukemia (intraperitoneal) in CD2F1 (CDF1) mice. The following applies: higher = longer survival. In short, it runs like this:
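Activity against a transplanted murine tumor was judged by comparing the compound group with a vehicle group. The outcome in the treated animals was divided by that in the controls.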

[1] abbreviates: endpoint: mean survival time, dose: 100.0 mg/kg/injection, schedule: Q04DX003 (ip), vehicle: saline with Tween-80.
Setting [2] is: endpoint: mean survival time, dose: 200.0 mg/kg/injection, schedule: Q04DX003 (ip), vehicle: saline with Tween-80.
The mark [3] stands for this setting: endpoint: mean survival time, dose: 400.0 mg/kg/injection, schedule: Q04DX003 (ip), vehicle: saline with Tween-80.
The mark [4] stands for this setting: endpoint: mean survival time, dose: 100.0 mg/kg/injection, schedule: Q01DX009 (ip), vehicle: saline with Tween-80.
Where [5] appears, read: endpoint: mean survival time, dose: 100.0 mg/kg/injection, schedule: Q04DX003 (ip), vehicle: saline.
Setting [6] is: endpoint: mean survival time, dose: 200.0 mg/kg/injection, schedule: Q01DX009 (ip), vehicle: saline with Tween-80.
[7] abbreviates: endpoint: mean survival time, dose: 200.0 mg/kg/injection, schedule: Q04DX003 (ip), vehicle: saline.
Where [8] appears, read: endpoint: mean survival time, dose: 400.0 mg/kg/injection, schedule: Q01DX009 (ip), vehicle: saline with Tween-80.
Setting [9] is: endpoint: mean survival time, dose: 400.0 mg/kg/injection, schedule: Q04DX003 (ip), vehicle: saline.
The mark [10] stands for this setting: endpoint: mean survival time, dose: 75.0 mg/kg/injection, schedule: Q01DX001 (ip), vehicle: saline.
Setting [11] is: endpoint: mean survival time, dose: 50.0 mg/kg/injection, schedule: Q01DX009 (ip), vehicle: saline with Tween-80.
[12] abbreviates: endpoint: median survival time, dose: 50.0 mg/kg/injection, schedule: Q01DX009 (ip), vehicle: Klucel (hydroxypropylcellulose) (HPC).
Setting [13] is: endpoint: median survival time, dose: 100.0 mg/kg/injection, schedule: Q01DX009 (ip), vehicle: Klucel (hydroxypropylcellulose) (HPC).
Setting [14] is: endpoint: median survival time, dose: 200.0 mg/kg/injection, schedule: Q01DX009 (ip), vehicle: Klucel (hydroxypropylcellulose) (HPC).
[15] abbreviates: endpoint: mean survival time, dose: 200.0 mg/kg/injection, schedule: Q04DX002 (ip), vehicle: saline with Tween-80.

Where “and” joins values, the source holds several entries; their conditions need not be identical. Identical values can stand only once. Inconclusive results and toxic doses are left out. Residues, ends and D or L forms follow the SMILES beside them. *: point of attachment. Trt = c1ccc(C(c2ccccc2)(c2ccccc2)*)cc1; Cbz = O=C(OCc1ccccc1)*; Bn = c1ccc(C*)cc1; βAla = NCCC(=O)O

With `CCc1cc(C)cc(OC(=O)Nc2cccc(Cl)c2)c1`, the T/C was 88 % of control under setting [1], 92 % of control under setting [2] and 92 % of control under setting [3].

In the case of `CCOC(=O)Cc1cccc(CC(O)(c2ccccc2)c2ccccc2)n1`, the T/C is 100 % of control under setting [4]; 92 % of control under setting [5]; 98 % of control under setting [6]; 90 % of control under setting [7]; 100 % of control under setting [8]; 87 % of control under setting [9].

`CC(C)Oc1ccc2c(c1)Sc1ccc(Cl)cc1N2`: the T/C is 93 % of control under setting [1], 96 % of control under setting [2] and 102 % of control under setting [3].

As for `CC1(CO)C2C=CC(C2)C1(C)CO` (stereo unspecified), the T/C was 105 % of control under setting [10] and 105 % of control (endpoint: mean survival time, dose: 150.0 mg/kg/injection, schedule: Q01DX001 (ip), vehicle: saline).

As to `N#CCCOC1CCCCC1`, the T/C is, setting by setting: under setting [1], 98 % of control; under setting [2], 93 % of control; under setting [3], 93 % of control.

As to `Clc1nc(Cl)nc(-c2cn(-c3ccccc3)c3ccccc23)n1`, the T/C is 95 % of control under setting [4]; 89 % of control under setting [1]; 95 % of control under setting [6]; 97 % of control under setting [2]; 96 % of control under setting [8]; 98 % of control under setting [3].

As to `COC(=O)C(C)C1(O)CCCCC1` (stereo unspecified), the T/C reads like this: under setting [1], 97 % of control; under setting [2], 95 % of control; under setting [3], 98 % of control.

Consider `Cc1onc(-c2ccccc2)c1C(=O)O`, for which the T/C is, setting by setting: under setting [1], 101 % of control; under setting [2], 93 % of control; under setting [3], 89 % of control.

In the case of `O=S(=O)(Nc1ccc2ccccc2c1)c1ccccc1`, the T/C reads like this: under setting [4], 98 % of control; under setting [5], 104 % of control; under setting [6], 98 % of control; under setting [7], 101 % of control; under setting [8], 98 % of control; under setting [9], 96 % of control.

In the case of `C[n+]1ccccc1NC(=O)c1ccccc1`, the T/C is 98 % of control under setting [1], 95 % of control under setting [2] and 88 % of control under setting [3].

As to `C[n+]1c(-c2ccc(/C=N/NC(=O)c3ccc(C(=O)N/N=C/c4ccc(-c5cn6ccccc6[n+]5C)cc4)cc3)cc2)cn2ccccc21`, the T/C reads like this: (endpoint: median survival time, dose: 25.0 mg/kg/injection, schedule: Q01DX005 (ip), vehicle: saline with Tween-80) 162 % of control; (endpoint: median survival time, dose: 43.2 mg/kg/injection, schedule: Q01DX005 (ip), vehicle: saline with Tween-80) 200 % of control; (endpoint: median survival time, dose: 72.0 mg/kg/injection, schedule: Q01DX005 (ip), vehicle: saline with Tween-80) 362 % of control; (endpoint: median survival time, dose: 100.0 mg/kg/injection, schedule: Q01DX005 (ip), vehicle: saline with Tween-80) 307 % of control; (endpoint: median survival time, dose: 120.0 mg/kg/injection, schedule: Q01DX005 (ip), vehicle: saline with Tween-80) 375 % of control; (endpoint: median survival time, dose: 200.0 mg/kg/injection, schedule: Q01DX005 (ip), vehicle: saline with Tween-80) 329 % of control and 375 % of control. For the same molecule, the T/C (endpoint: median survival time, dose: 333.33 mg/kg/injection, schedule: Q01DX005 (ip), vehicle: saline with Tween-80) was 162 % of control and the T/C (endpoint: median survival time, dose: 400.0 mg/kg/injection, schedule: Q01DX005 (ip), vehicle: saline with Tween-80) was 329 % of control.

Regarding `NC(N)=Nc1ccc(C(=O)Oc2ccc([N+](=O)[O-])cc2)cc1`, the T/C runs as follows: under setting [4], 112 % of control; under setting [6], 102 % of control.

Regarding `CN(C)c1ccc2nc(CC(O)(C(F)(F)F)C(F)(F)F)ccc2c1`, the T/C (endpoint: mean survival time, dose: 25.0 mg/kg/injection, schedule: Q01DX009 (ip), vehicle: saline with Tween-80) is 95 % of control; the T/C under setting [11] was 95 % of control; the T/C under setting [4] is 93 % of control; the T/C under setting [1] was 89 % of control.

Consider `COC(=O)C(CSC(c1ccccc1)(c1ccccc1)c1ccccc1)NC(=O)C(CSCc1ccccc1)NC(=O)CCNC(=O)OCc1ccccc1` (stereo unspecified) ({Cbz-βAla}-Cys(Bn)-Cys(Trt)-OMe; configuration not given here), for which the T/C (endpoint: median survival time, dose: 12.5 mg/kg/injection, schedule: Q01DX009 (ip), vehicle: Klucel (hydroxypropylcellulose) (HPC)) was 101 % of control; the T/C (endpoint: median survival time, dose: 25.0 mg/kg/injection, schedule: Q01DX009 (ip), vehicle: Klucel (hydroxypropylcellulose) (HPC)) was 101 % of control; the T/C under setting [12] was 101 % of control; the T/C under setting [13] is 108 % of control; the T/C under setting [14] is 103 % of control.

Take `Cn1c(=O)sc2ccccc21`: the T/C runs as follows: (endpoint: mean survival time, dose: 100.0 mg/kg/injection, schedule: Q04DX002 (ip), vehicle: saline with Tween-80) 111 % of control; under setting [15], 114 % of control.

Consider `COC(=O)c1csc(CCN)n1`, for which the T/C by setting is: (endpoint: mean survival time, dose: 100.0 mg/kg/injection, schedule: Q01DX009 (ip), vehicle: saline) 102 % of control; (endpoint: mean survival time, dose: 200.0 mg/kg/injection, schedule: Q01DX009 (ip), vehicle: saline) 95 % of control; (endpoint: mean survival time, dose: 400.0 mg/kg/injection, schedule: Q01DX009 (ip), vehicle: saline) 92 % of control.

`N#CCCN=C1C=CC(=C(c2ccc(NCCC#N)cc2)c2ccccc2Cl)C=C1`: the T/C was 93 % of control under setting [15] and 103 % of control (endpoint: mean survival time, dose: 400.0 mg/kg/injection, schedule: Q04DX002 (ip), vehicle: saline with Tween-80).

With `CCOC/C=C/C1CCCCC1`, the T/C is, setting by setting: under setting [11], 117 % of control; under setting [4], 97 % of control; under setting [6], 97 % of control.

As for `C#CC[N+](C)(C)CCNC(=O)CCCCCCCCCCCCCCC`, the T/C under setting [10] is 102 % of control.

With `C=C(c1ccc(OC)c(OC)c1)c1nccc2cc(OC)c(OC)cc12`, the T/C is 101 % of control under setting [12]; 89 % of control under setting [13]; 95 % of control under setting [14]; 97 % of control (endpoint: median survival time, dose: 400.0 mg/kg/injection, schedule: Q01DX009 (ip), vehicle: Klucel (hydroxypropylcellulose) (HPC)); 108 % of control (endpoint: median survival time, dose: 800.0 mg/kg/injection, schedule: Q01DX009 (ip), vehicle: Klucel (hydroxypropylcellulose) (HPC)).

As to `CN(C)CC(=O)Nc1cc(Cl)ccc1Oc1ccc(Cl)cc1`, the T/C under setting [4] is 103 % of control, the T/C under setting [6] was 100 % of control and the T/C under setting [8] is 105 % of control.

Turning to `N#CC1c2ccccc2C=NN1C(=O)N(c1ccccc1)c1ccccc1` (stereo unspecified), the T/C is, setting by setting: (endpoint: mean survival time, dose: 100.0 mg/kg/injection, schedule: Q04DX003 (ip), vehicle: other) 103 % of control; (endpoint: mean survival time, dose: 200.0 mg/kg/injection, schedule: Q04DX003 (ip), vehicle: other) 105 % of control; (endpoint: mean survival time, dose: 400.0 mg/kg/injection, schedule: Q04DX003 (ip), vehicle: other) 105 % of control.

Take `CC1=CC2c3cccc4[nH]cc(c34)CC2N(C)C1` (stereo unspecified): the T/C (endpoint: median survival time, dose: 1.25 mg/kg/injection, schedule: Q01DX009 (ip), vehicle: suspension in saline) was 101 % of control; the T/C (endpoint: median survival time, dose: 2.5 mg/kg/injection, schedule: Q01DX009 (ip), vehicle: suspension in saline) was 101 % of control; the T/C (endpoint: median survival time, dose: 5.0 mg/kg/injection, schedule: Q01DX009 (ip), vehicle: suspension in saline) is 101 % of control; the T/C (endpoint: median survival time, dose: 10.0 mg/kg/injection, schedule: Q01DX009 (ip), vehicle: suspension in saline) is 101 % of control; the T/C (endpoint: median survival time, dose: 20.0 mg/kg/injection, schedule: Q01DX009 (ip), vehicle: suspension in saline) is 98 % of control.

Turning to `CC1(C)C=C(Cc2ccccc2)C(=O)c2ccccc21`, the T/C runs as follows: under setting [4], 94 % of control; under setting [1], 96 % of control; under setting [6], 97 % of control; under setting [2], 100 % of control; under setting [8], 97 % of control; under setting [3], 97 % of control.

In the case of `CC(C)(C)OC(=O)C12CCCC(C(=O)OC(C)(C)C)(OO1)O2`, the T/C by setting is: (endpoint: mean survival time, dose: 100.0 mg/kg/injection, schedule: Q01DX001 (ip), vehicle: saline) 95 % of control; (endpoint: mean survival time, dose: 200.0 mg/kg/injection, schedule: Q01DX001 (ip), vehicle: saline) 95 % of control; (endpoint: mean survival time, dose: 400.0 mg/kg/injection, schedule: Q01DX001 (ip), vehicle: saline) 101 % of control.

`Cc1oc(N)c(C#N)c1C`: the T/C runs as follows: under setting [4], 101 % of control; under setting [1], 102 % of control; under setting [6], 104 % of control; under setting [2], 96 % of control; under setting [8], 106 % of control; under setting [3], 102 % of control.

Turning to `O=[N+]([O-])c1c[n+]([O-])ccc1Cl`, the T/C was 101 % of control (endpoint: mean survival time, dose: 5.0 mg/kg/injection, schedule: Q01DX001 (ip), vehicle: saline) and 103 % of control (endpoint: mean survival time, dose: 10.0 mg/kg/injection, schedule: Q01DX001 (ip), vehicle: saline).
